Results published in patent US7550613B2, “Compounds” (Pronova Biopharma Norge AS, priority 2005, dated 2009).

Columns and labels:
[1] = Effect of DHA derivatives in adipose prone mice during 4 months of dietary interventions (Example 5a); type: in vivo, male C57BL/6 mice; conditions: for Body wt. gain / Body weight / NEFA / Insulin / TAGs: 4 months; for Body weight: * = significant vs cHF (P<0.05); for AUCglucose: intraperitoneal glucose tolerance test; for NEFA: non-esterified fatty acids; for Insulin: plasma; for TAGs: serum triglycerides
Experimental: All experiments were performed on male C57BL/6 mice, either a substrain C57BL/N (supplier: Charles River, Germany, n=160, experiments A-C, see below), or a substrain C57BL/6J (supplier: the Jackson laboratory, Bar Harbor, Me., USA, n=32, experiment D). Total numbers of animals used were higher (n=170 and 36, respectively), because of culling. In the latter case, animals were bred for several generations (<20) at the Institute of Physiology. At the beginning of the treatment, animals were 14-week-old and their body weight range was 23.6-27.1 g. One week before the study start, animals were sorted according to their body weight and assigned to subgroups (n=8) of similar mean body weight. This method allowed for culling of about 5-10% of animals showing the lowest and highest body weight, respectively. The animals eliminated from the study at this stage were sacrificed by cervical dislocation. Complete health check of mice was performed by the supplier Charles River and at the start of study serological tests were performed by ANLAB (Prague, Czech Republic). In addition, regular health checks were performed in the animal house in 3-mo-intervals using sentinel mice and serological examinations (ANLAB). In all the tests, the animals were free of specific pathogens.
• (i) Chow diet (ssniff R/M-H from SSNIFF Spezialdieten Gmbh, Soest, Germany; see also http://ssniff.de) with protein, fat and carbohydrate forming 33, 9, and 58 energy %, respectively • (ii) High-fat diet prepared in the laboratory (cHF diet) with protein, fat and carbohydrate forming 15, 59, and 26 energy %, respectively, and well characterized fatty acid composition (with most of the lipids coming from corn oil; see Ruzickova 2004) • (iii) cHF diets in which 0.15, 0.5, and 1.5% of fat (specifically the corn oil constituent) was replaced by various PRB-compounds, namely PRB1, PRB2, PRB5, PRB7, and PRB8, or by DHA. All these compounds were in the form of ethyl esters, provided by Pronova Biocare a.s. in sealed containers. Chemical composition of the PRB-compounds was unknown to the laboratory performing the experiments (Institute of Physiology, Academy of Sciences Prague, Czech Republic).
The study was based on 4 individual experiments. In each of the experiments, different PRB-compounds (or DHA, respectively) admixed to cHF diet in three different concentrations (0.15, 0.5, and 1.5% of the fat content) were tested. In each experiment, a subgroup of plain cHF diet-fed mice was included and served as a control. Mice were caged in groups of 4 and fed standard chow diet until 3 mo of age, when animals (n=8-13) were randomly assigned to the different test diets. After 2 mo on this new diet (at 5 mo of age), animals were fasted overnight and in the morning, intraperitoneal Glucose Tolerance Test (GTT) was performed. Animals were sacrificed after 4 months on the experimental diets, at 7 mo of age, and the end-point analysis were performed.

[2] = Analysis of intracellular free fatty acids in liver tissue (RP-HPLC MS/MS); type: in vivo, adipose prone mice of the C57BL/6J strain; conditions: FIG. 4; 1.5% of total fat content
Experimental: In the first block of experiments (see FIG. 2) liver tissue from animals fed PRB-1,2,5, and 7 was analysed with respect to free unesterified fatty acids. The animals were recruited from the fifth block of experiments (pharmacodynamic effects of DHA derivatives in an animal model of metabolic syndrome). The animals had been given DHA ([…] of fat content of the diet) or the DHA-derivatives (1.5% of the fat content in their diet) for 8 weeks and were supposed to be in a steady-state situation with stable levels of DHA and the DHA-derivatives intracellularily. Liver tissue was chosen due to the fact that the metabolisation rate is very high in liver.
The liver samples were homogenized in cold PBS buffer, and extracted immediately with chloroform:methanol (2:1) containing 0.2 mM butylated hydroxytoluene (BHT) using cis-10-heptadecenoic acid as internal standard. […] Total protein content was measured using Bio-Rad method after homogenization.
Agilent 1100 system was used for reverse phase column (Supelco Ascentis C18 column, 25 cm×4.6 mm, i.d. 5 μm) separation of DHA and its PRB derivatives within 22 min. […] The column elute was identified and quantified in the negative electrospray ionisation applying multiple reaction monitoring mode by triple tandem quadrapole mass/mass (ABI Qtrap-4000). […] The quadratic regression standard curve was used for quantification after internal standard calibration. […]

intracellular concentration of DHA in liver tissue from animals given the PRB [2]: significantly higher level
SMILES: CC/C=C\C/C=C\C/C=C\C/C=C\C/C=C\C/C=C\CC(SCC)C(=O)OCC (stereo not drawn) [PRB-7, α-tioethyl docosahexaenoic acid ethyl ester]
Fasted glucose ([1]; 0.15% concentration): 141 ± 9 mg/dL | Fasted glucose ([1]; 0.5% concentration): 152 ± 6 mg/dL | Fasted glucose ([1]; 1.5% concentration): 120 ± 9 mg/dL | Body wt. gain ([1]; 0.15% concentration): 23.2 ± 0.7 grams | Body weight ([1]; 0.15% concentration): 47.4 ± 0.8* grams | Body wt. gain ([1]; 0.5% concentration): 24.8 ± 0.8 grams | Body weight ([1]; 0.5% concentration): 48.8 ± 0.9 grams | Body wt. gain ([1]; 1.5% concentration): 21.7 ± 0.9 grams | Body weight ([1]; 1.5% concentration in cHF diet): 45.9 ± 1.1* grams | AUCglucose ([1]; 0.15% concentration): 1425 ± 97 mM × 180 min | AUCglucose ([1]; 0.5% concentration): 1674 ± 203 mM × 180 min | AUCglucose ([1]; 1.5% concentration): 1122 ± 73 mM × 180 min | NEFA ([1]; 0.15% concentration): 0.85 ± 0.06 mmol/L | NEFA ([1]; 0.5% concentration): 0.87 ± 0.04 mmol/L | NEFA ([1]; 1.5% concentration): 0.82 ± 0.06 mmol/L | Insulin ([1]; 0.15% concentration): 3.76 ± 0.72 ng/mL | Insulin ([1]; 0.5% concentration): 4.10 ± 0.57 ng/mL | Insulin ([1]; 1.5% concentration): 4.42 ± 0.87 ng/mL | TAGs ([1]; 0.15% concentration): 1.41 ± 0.11 mmol/L | TAGs ([1]; 0.5% concentration): 1.42 ± 0.08 mmol/L | TAGs ([1]; 1.5% concentration): 1.15 ± 0.08 mmol/L
